“Also recorded” adds a separate entry of the source.
What was measured:
[1] = test system: ALDH1A3 target genes (RARB, DHRS3, ELF3, RARRES1); assay: Expression of ALDH1A3 target genes in breast cancer cell lines by QPCR; format: cell-based; conditions: 24 hours of treatment; for Expression of ALDH1A3 target genes in ALDH1A3-expressing lines: ALDH1A3-overexpressing MDA-MB-231, MDA-MB-468 and HCC1806 cells; for Expression of ALDH1A3 target genes in native line: native MDA-MB-231 cells
Protocol: FIGS. 5A, 5B, 5C. […] Expression of DHRS3, RARB, ELF3, and RARRES1 in MDA-MB-231 cells with ALDH1A3 overexpression (FIG. 5A), MDA-MB-468 cells (with ALDH1A3 shRNA knockdown as control, FIG. 5B), and HCC1806 (with ALDH1A3 shRNA knockdown as control, FIG. 5C) is determined 24 hours after treatment with 0, 1, 10, or 100 nM compound 1 by QPCR. Significance determined by one-way Anova, p-value […], <0.01=**, <0.001=***, <0.0001=****.
Subsequently, to confirm the direct inhibitory activity of the tested compounds on the enzymatic isoform of interest, their effect on the expression of ALDH1A3 target genes, and in particular of RARB, DHRS3, ELF3, and RARRES1, was investigated in the aforementioned cell lines.

ALDH1A3 = molecular target: T1, ALDH1A3 (Homo sapiens, UniProt P47895); assay: Aldefluor test in MDA-MB-231 cells overexpressing ALDH1A3; format: cell-based; conditions: for IC50: Aldefluor test; for Inhibition of ALDH1A3-induced Aldefluor activity: dilution series of compound
T1 construct: expressed in transfected cells; host or cells: MDA-MB-231
T1 sequence (P47895 1-512): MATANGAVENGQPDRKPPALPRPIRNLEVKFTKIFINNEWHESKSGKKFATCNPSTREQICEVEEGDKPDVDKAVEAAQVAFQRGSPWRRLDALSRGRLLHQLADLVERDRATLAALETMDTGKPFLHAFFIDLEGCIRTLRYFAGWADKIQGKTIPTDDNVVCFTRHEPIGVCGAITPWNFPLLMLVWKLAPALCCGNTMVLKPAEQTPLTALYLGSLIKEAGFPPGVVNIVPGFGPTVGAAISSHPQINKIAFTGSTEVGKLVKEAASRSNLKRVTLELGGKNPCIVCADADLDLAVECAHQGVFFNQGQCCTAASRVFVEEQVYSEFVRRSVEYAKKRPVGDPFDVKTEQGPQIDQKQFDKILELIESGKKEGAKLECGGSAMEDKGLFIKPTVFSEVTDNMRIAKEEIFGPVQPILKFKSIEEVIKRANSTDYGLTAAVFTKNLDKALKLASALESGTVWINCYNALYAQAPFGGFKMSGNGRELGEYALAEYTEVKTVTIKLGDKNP
Protocol: (§1) In vitro assays were conducted on breast cancer cell lines MDA-MB-231, MDA-MB-468, and HCC1806 cells. Specifically, the MDA-MB-231 cell line, characterized by a low expression of ALDH1A, was used as such or after being engineered to overexpress the ALDH1A1 or ALDH1A3 isoform, while the MDA-MB-468 and HCC1806 cell lines, characterized by a high expression of ALDH1A3 were used as such or after being knocked down for the ALDH1A3 isoform (FIG. 1). […] The experiments were conducted using the Aldefluor® test, specific for aldehyde dehydrogenases.

MDA-MB-231 tumors = assay: Orthotopic MDA-MB-231 xenograft (native or ALDH1A3-overexpressing) in NOD/SCID mice; format: in vivo; conditions: for RARB level in tumors (pharmacodynamic analysis): ALDH1A3-overexpressing MDA-MB-231 tumors harvested day 41, treatment from day 15
Protocol: (§2) In vivo experimentation then ensued. The in vivo assays were conducted using eight-week-old female NOD/SCID mice orthotopically injected with 2×10^6 native or ALDH1A3-overexpressing MDA-MB-231 cells. 60 female NOD-SCID mice had approximately 2,000,000 MDA-MB-231 cells injected into a 5th mammary fat pad. 30 mice were injected with MDA-MB-231 bearing a vector control (Groups 1-3), and 30 mice were injected with MDA-MB-231 bearing an ALDH1A3 overexpression vector (Groups 4-6). On day 15 of inoculation, the treatment phase began. Groups 1 and 4 (n=10, 10 respectively) received saline i.p. injections 100 uL every day for 26 days. Groups 2 and 5 (n=10, 10) received 0.4 mg/kg drug i.p. in 100 uL saline every day for 26 days. Groups 3 and 6 (n=10, 10) received 4.0 mg/kg drug i.p. in 100 uL saline every day for 26 days. Caliper measurements of tumors and body weights were taken throughout the treatment phase. After 26 days, all mice were euthanized, the tumors were harvested, and blood was drawn for analysis.
On day 15, the animals were treated with compound 1, administered daily intraperitoneally at a concentration of 0.4 mg/Kg or 4 mg/Kg, then constantly monitored for body weight increase (FIG. 7) and tumor volume (FIG. 8). Once the tumors became palpable, we started treatment of the animals (day 15). After 26 days of treatment, the animals were sacrificed and the tumors were collected and evaluated for size (FIGS. 8 and 9) and weight (FIG. 10).

ALDH1A1 = molecular target: T2, ALDH1A1 (Homo sapiens, UniProt P00352); assay: Aldefluor test in MDA-MB-231 cells overexpressing ALDH1A1; format: cell-based
T2 construct: expressed in transfected cells; host or cells: MDA-MB-231
T2 sequence (P00352 1-501): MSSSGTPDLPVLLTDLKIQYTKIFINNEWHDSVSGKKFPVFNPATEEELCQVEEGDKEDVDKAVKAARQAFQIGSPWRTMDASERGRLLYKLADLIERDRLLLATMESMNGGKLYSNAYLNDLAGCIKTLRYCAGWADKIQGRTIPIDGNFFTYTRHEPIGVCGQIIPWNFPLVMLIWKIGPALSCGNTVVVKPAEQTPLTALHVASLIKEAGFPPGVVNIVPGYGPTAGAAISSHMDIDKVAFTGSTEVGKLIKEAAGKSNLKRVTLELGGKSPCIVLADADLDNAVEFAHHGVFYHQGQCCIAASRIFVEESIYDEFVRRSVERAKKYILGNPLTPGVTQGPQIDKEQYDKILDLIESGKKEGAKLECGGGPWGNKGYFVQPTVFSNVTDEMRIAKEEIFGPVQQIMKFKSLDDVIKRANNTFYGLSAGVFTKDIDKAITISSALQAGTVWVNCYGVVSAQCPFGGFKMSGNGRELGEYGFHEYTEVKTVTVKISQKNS
Protocol: as §1

[2] = Toxicity readouts in the xenograft study: body weight, serum ALT, serum creatinine; format: in vivo, mice
Protocol: as §2
This is evidenced by the trend over time of their body weight (FIG. 7) and also the analysis of alanine aminotransferase (ALT) and creatinine levels in serum collected from terminal animals (FIGS. 12A and 12B).

[3] = MDA-MB-231 cells overexpressing ALDH1A3
[4] = MDA-MB-231 cells with ALDH1A3 overexpression
[5] = daily treatment from day 15, measured on day 41, mice

| IC50 (ALDH1A3; [3]) | Inhibition of ALDH1A3-induced Aldefluor activity (ALDH1A3; [4]) | Amounts distinguishable from control counts in the plot of Aldefluor count (ALDH1A3; MDA-MB-231 cells with ALDH1A3 overexpression, all other concentrations not distinguishable from control) | Inhibition of Aldefluor assay activity of ALDH1A3 (ALDH1A3; 100 uM, MDA-MB-231 cells overexpressing ALDH1A3) | SMILES | Expression of ALDH1A3 target genes in ALDH1A3-expressing lines [1] | Expression of ALDH1A3 target genes in native line [1] | Tumor growth (volume, weight) induced by ALDH1A3 (MDA-MB-231 tumors; 0.4 or 4 mg/Kg i.p. daily for 26 days from day 15, NOD/SCID mice) | RARB level in tumors (pharmacodynamic analysis) (MDA-MB-231 tumors) | RARB level in tumors (pharmacodynamic analysis) (MDA-MB-231 tumors; listed as compound 1) | Inhibition of Aldefluor assay activity of ALDH1A1 (ALDH1A1; 100 uM) | Inhibition of Aldefluor activity induced by ALDH1A1 overexpression (ALDH1A1; all plotted concentrations) | Toxicity (overall) ([2]; daily i.p. 0.4 or 4 mg/Kg for 26 days, mice) | Serum alanine aminotransferase (ALT) [2, 5] | Serum creatinine [2, 5] | Body weight ([2]; mice injected with MDA-MB-231 cells, treatment from day 15) |
| --- | --- | --- | --- | --- | --- | --- | --- | --- | --- | --- | --- | --- | --- | --- | --- |
| ~100000 nM | inhibit | 100 µM | – | c1ccc(-c2ccc3nc(-c4ccccc4)cn3c2)cc1 [GA11, reference compound] | – | – | – | – | – | – | – | – | – | – | – |
| 9.4 nM | inhibits Aldefluor activity | – | – | CC(=O)c1ccc(-c2cc(-c3ccc(C#N)cc3)cn3cc(-c4ccccc4)nc23)cc1 [Compound 2, 4-(8-(4-acetylphenyl)-2-phenylimidazo[1,2-a]pyridin-6-yl)benzonitrile] | statistically significantly reduced the expression of the target genes | neither compound 1 nor compound 2 produced significant results | – | – | – | – | – | – | – | – | – |
| – | – | – | inhibits | CCN(CC)c1ccc(C=O)cc1 [DEAB, 4-Diethylaminobenzaldehyde, reference compound] | – | – | – | – | – | – | – | – | – | – | – |

| SMILES | IC50 (ALDH1A3; [3]) | Inhibition of ALDH1A3-induced Aldefluor activity (ALDH1A3; [4]) | Amounts distinguishable from control counts in the plot of Aldefluor count (ALDH1A3; MDA-MB-231 cells with ALDH1A3 overexpression, all other concentrations not distinguishable from control) | Inhibition of Aldefluor assay activity of ALDH1A3 (ALDH1A3; 100 uM, MDA-MB-231 cells overexpressing ALDH1A3) | Expression of ALDH1A3 target genes in ALDH1A3-expressing lines [1] | Expression of ALDH1A3 target genes in native line [1] | Tumor growth (volume, weight) induced by ALDH1A3 (MDA-MB-231 tumors; 0.4 or 4 mg/Kg i.p. daily for 26 days from day 15, NOD/SCID mice) | RARB level in tumors (pharmacodynamic analysis) (MDA-MB-231 tumors) | RARB level in tumors (pharmacodynamic analysis) (MDA-MB-231 tumors; listed as compound 1) | Inhibition of Aldefluor assay activity of ALDH1A1 (ALDH1A1; 100 uM) | Inhibition of Aldefluor activity induced by ALDH1A1 overexpression (ALDH1A1; all plotted concentrations) | Toxicity (overall) ([2]; daily i.p. 0.4 or 4 mg/Kg for 26 days, mice) | Serum alanine aminotransferase (ALT) [2, 5] | Serum creatinine [2, 5] | Body weight ([2]; mice injected with MDA-MB-231 cells, treatment from day 15) |
| --- | --- | --- | --- | --- | --- | --- | --- | --- | --- | --- | --- | --- | --- | --- | --- |
| CC(=O)c1ccc(-c2cc(-c3ccc(C(C)=O)cc3)c3nc(-c4ccccc4)cn3c2)cc1 [Compound 1, 1,1′-((2-phenylimidazo[1,2-a]pyridine-6,8-diyl)bis(4,1-phenylene))bis(ethan-1-one)] | 1.9 nM | inhibits Aldefluor activity | – | – | statistically significantly reduced the expression of the target genes; also recorded: specifically inhibit the expression of ALDH1A3 target genes | neither compound 1 nor compound 2 produced significant results | reduce, in a statistically significant way, the increased tumor growth | reduces ALDH1A3-inducible RARB expression | significantly reduced RARB level | did not inhibit | does not inhibit Aldefluor activity | no detectable toxicity | does not affect | does not affect | No significant changes were observed |
